According to patent publication US20020072512A1, “Method of preventing and treating HIV-mediated central nervous system damage” (priority 2000, published 2002):

Experiments:
[1] = test system: astroglial cells incubated with supernatants of HIV-infected macrophages; assay: Malondialdehyde (MDA) in astroglial cells incubated with supernatants of HIV-infected macrophages; type: cell-based, human; conditions: M40401 100 μM, L-NAME 100 μM, AZT 50 μM, MDA in nmol g-1
Protocol: (§1) The astrocytic cell line Lipari was derived from a patient who presented a large right front-temporal mass (astrocytoma), and grown as previously described (Mollace, V., Colasanti, M., Rodinò, P., Lauro, G. M. & Nisticò, G. (1994b). Biochem. Biophys. Res. Commun. 203, 87-92.). Cells were expanded and cultured by seeding them in 25cm plastic flasks at a density of 0.7×10^6 cells/flask in complete medium, and incubated at 37° C. in humidified air containing 5% CO2.
(§2) A monocytotropic strain of HIV-1, named HIV-1Ba-L was used in all experiments. M/M cultures were exposed to HIV and virus expansion was performed. After 2 hours, virus was removed by washing cultures with warm medium and then cultures of M/M infected by HIV were carried out for further 13-15 days.
(§3) The supernatant of HIV-infected M/M was collected 13 days after virus infection and then incubated for 3 hours with cultured astrocytes. The supernatant of Mock-infected M/M was used as control treatment. […] HIV-p24 antigen production in supernatants of M/M was assesed using a commercially available ELISA Kit (HIV-p24 gag Abbott Lab, Pomezia, Italy).

[2] = test system: astroglial cells exposed to supernatant of HIV-infected macrophages; assay: Ultrastructural studies (electron microscopy) of astroglial cells; type: cell-based, human; conditions: co-incubation, AZT 50 μM; for pro-apoptotic effect of supernatant of HIV-infected M/M on astroglial cell ultrastructure: M40401 10-100 μM, L-NAME 100 μM
Protocol: as §1, §2, §3
Cells for electron microscopy were fixed in 2.5% glutaraldehyde in PBS pH7.4 at 4° C. and then washed for 2 hours in PBS and post fixed in osmium tetroxide 1,33% for 2 hours at 4° C. After several washes in PBS, the cells were dehydrated in graded alcohol, transferred into toluene, and embedded in Epon 812 resin. The resin was allowed to polymerize in a dry oven at 60° C. for 24 hours. Thin sections were cut with a glass knife Reichert microtome, stained with Touloidine Blue and examined on Axioscope microscope. Ultra-thin sections were cut on a Reichert microtome using a diamond knife, stained with uranyl-acetate-lead-hydroxide and evaluated and photographed on a Philips electron microscope CM 10 (Philips).

[3] = test system: Lipari astroglial cell line incubated with supernatant of HIV-1 infected macrophages; assay: FACS analysis of apoptotic cell death of astrocytes exposed to supernatant of HIV-infected macrophages; type: cell-based, human; conditions: M40401 10-100 μM, L-NAME 100 μM, AZT 50 μM
Protocol: as §1, §2
The supernatant of HIV-infected M/M was collected 13 days after virus infection and then incubated for 3 hours with cultured astrocytes. The supernatant of Mock-infected M/M was used as control treatment. […]
The astrocytic cells either treated or untreated with supernatants of HIV-infected macrophages were gently detached from plastic 8 days after exposure. […] Propidium iodide-stained cells were analysed with a FACScan Flow Cytometer; fluorescence was measured between 565 and 605nm. The data were acquired and analysed by the Lysis II program.

[4] = Reaction with hydrogen peroxide (spectrophotometric or cyclic voltammetric monitoring); type: biochemical; conditions: spectrophotometric or electrochemical (cyclic voltammetric) techniques
[5] = Catalytic catalase activity assay using oxygen electrodes; type: biochemical; conditions: total oxygen evolved
[6] = same conditions (pH=7.4 and 21° C.); cited from earlier work

catalytic catalase activity with H2O2 [5] | Compound | MDA overproduction (lipid peroxydation) [1] | pro-apoptotic effect of HIV-infected macrophages on astroglial cell ultrastructure ([2]; FIG. 5, M40401 100 μM) | pro-apoptotic effect of supernatant of HIV-infected M/M on astroglial cell ultrastructure [2] | apoptotic cell death of astroglial cells as evaluated by FACS analysis [3] | stoichiometric reaction with H2O2 [4] | reaction with hydrogen peroxide [6]
 | Cc1cn([C@H]2C[C@H](N=[N+]=[N-])[C@@H](CO)O2)c(=O)[nH]c1=O [AZT] | failed to antagonize | failed to inhibit | failed to inhibit |  |  | 
 | COC(=O)[C@@H](N)CCCNC(=N)N[N+](=O)[O-] [L-NAME] | failed to antagonize |  | failed to inhibit | failed to modify |  | 
no catalytic activity is observed | [Cl-].[Cl-].[Mn+2].c1cc2nc(c1)CN[C@@H]1CCCC[C@H]1NCCN[C@@H]1CCCC[C@H]1NC2 [M40403] |  |  |  |  | no stoichiometric reaction is observed | do not react
